Source: PMC6409085, “Three odorant-binding proteins are involved in the behavioral response of Sogatella furcifera to rice plant volatiles” (PeerJ, 2019)
“And” between values parts separate entries of the source, which are not always exact repeats. Equal values may be shown once.

Columns and labels:
SfurOBP1 = SfurOBP1 (Sogatella furcifera, UniProt V5T8N5); assay: biochemical; type: binding; details: for Fluorescence competitive binding assay, fluorescence intensity: OBP1, three replicate columns
Chain of SfurOBP1 (V5T8N5 entry or part of it): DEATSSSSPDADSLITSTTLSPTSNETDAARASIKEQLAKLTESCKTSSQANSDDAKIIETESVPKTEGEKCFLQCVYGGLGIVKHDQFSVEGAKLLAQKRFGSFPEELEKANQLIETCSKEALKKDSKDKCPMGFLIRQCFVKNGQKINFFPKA
Summary of the method: (§1)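 Fluorescence competitive binding with 1-NPN as reporter: 2.0 µM protein and 2.0 µM 1-NPN in 50 mM Tris-HCl pH 7.4, odorant added at 2–20 µM final. Excitation 337 nm, emission 390–490 nm read 2 min after addition, triplicates. Ki = IC50/(1 + [1-NPN]/K1-NPN).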

SfurOBP3 = SfurOBP3 (Sogatella furcifera, UniProt V5T818); assay: biochemical; type: binding; details: for Fluorescence competitive binding assay, fluorescence intensity: OBP3, three replicate columns
Chain of SfurOBP3 (V5T818 entry or part of it): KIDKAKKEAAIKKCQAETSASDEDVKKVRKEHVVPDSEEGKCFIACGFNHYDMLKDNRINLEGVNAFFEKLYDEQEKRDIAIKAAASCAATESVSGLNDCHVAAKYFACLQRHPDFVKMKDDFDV
Summary of the method: as §1

SfurOBP2 = SfurOBP2 (Sogatella furcifera, UniProt V5T759); assay: biochemical; type: binding
Chain of SfurOBP2 (V5T759 entry or part of it): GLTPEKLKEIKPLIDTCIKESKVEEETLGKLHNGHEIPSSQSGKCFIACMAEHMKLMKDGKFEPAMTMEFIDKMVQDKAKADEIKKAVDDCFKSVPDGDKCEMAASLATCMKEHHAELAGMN
Summary of the method: as §1

SfurOBP11 = SfurOBP11 (Sogatella furcifera, UniProt V5T6E3); assay: biochemical; type: binding
Chain of SfurOBP11 (V5T6E3 entry or part of it): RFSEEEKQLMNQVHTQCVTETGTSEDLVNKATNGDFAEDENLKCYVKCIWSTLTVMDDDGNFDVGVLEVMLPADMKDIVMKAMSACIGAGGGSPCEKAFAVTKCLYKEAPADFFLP
Summary of the method: as §1

S. furcifera adults = assay: Y-tube olfactometer behavioral trials; type: in vivo, Sogatella furcifera; details: odorant 50 µL/L vs hexane
Summary of the method: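 Single S. furcifera adults (2 days post-emergence, starved 0.5 h) chose between odorant (100 µL of 50 µL/L on filter paper) and hexane control in a glass Y-tube, charcoal-filtered humidified air 300 mL/min per arm, 25 ± 1 °C, 50% RH. Choice scored if insect passed half an arm and stayed >1 min within 10 min; 45 insects per compound, chi-squared test.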

## C=C/C(C)=C/C/C=C(\C)CCC=C(C)C [α-farnesene]
SfurOBP1; ligand concentration 2 (μM)
  Fluorescence competitive binding assay, fluorescence intensity: 5991 and 6647 and 6019
SfurOBP1; ligand concentration 4 (μM)
  Fluorescence competitive binding assay, fluorescence intensity: 9444 and 9717 and 9590
SfurOBP1; ligand concentration 6 (μM)
  Fluorescence competitive binding assay, fluorescence intensity: 8928 and 9981 and 10192
SfurOBP1; ligand concentration 8 (μM)
  Fluorescence competitive binding assay, fluorescence intensity: 7764 and 12061 and 8808
SfurOBP1; ligand concentration 10 (μM)
  Fluorescence competitive binding assay, fluorescence intensity: 10672 and 12757 and 12848
SfurOBP1; ligand concentration 12 (μM)
  Fluorescence competitive binding assay, fluorescence intensity: 11226 and 16440 and 11668
SfurOBP1; ligand concentration 14 (μM)
  Fluorescence competitive binding assay, fluorescence intensity: 11457 and 12509 and 12654
SfurOBP1; ligand concentration 16 (μM)
  Fluorescence competitive binding assay, fluorescence intensity: 9720 and 12853 and 11395
SfurOBP1; ligand concentration 18 (μM)
  Fluorescence competitive binding assay, fluorescence intensity: 14020 and 17603 and 13863
SfurOBP1; ligand concentration 20 (μM)
  Fluorescence competitive binding assay, fluorescence intensity: 16799 and 14644 and 13556
SfurOBP1; SfurOBP1, protein and 1-NPN both 2.0 µM, competitor 2-20 µM, read-out: IC50
  IC50: > 20 µM
SfurOBP3; ligand concentration 2
  Fluorescence competitive binding assay, fluorescence intensity: 35042 and 35938 and 36236
SfurOBP3; ligand concentration 4
  Fluorescence competitive binding assay, fluorescence intensity: 33936 and 35041 and 36163
SfurOBP3; ligand concentration 6
  Fluorescence competitive binding assay, fluorescence intensity: 30371 and 31101 and 32222
SfurOBP3; ligand concentration 8
  Fluorescence competitive binding assay, fluorescence intensity: 32781 and 31040 and 32847
SfurOBP3; ligand concentration 10
  Fluorescence competitive binding assay, fluorescence intensity: 31032 and 32369 and 33307
SfurOBP3; ligand concentration 12
  Fluorescence competitive binding assay, fluorescence intensity: 29013 and 34433 and 32292
SfurOBP3; ligand concentration 14
  Fluorescence competitive binding assay, fluorescence intensity: 31092 and 30872 and 34922
SfurOBP3; ligand concentration 16
  Fluorescence competitive binding assay, fluorescence intensity: 33838 and 32037 and 30214
SfurOBP3; ligand concentration 18
  Fluorescence competitive binding assay, fluorescence intensity: 37931 and 38340 and 38776
SfurOBP3; ligand concentration 20
  Fluorescence competitive binding assay, fluorescence intensity: 37363 and 39141 and 38102
SfurOBP3; SfurOBP3
  binding affinity to SfurOBP3 (in words): high binding affinities
SfurOBP3; SfurOBP3, protein and 1-NPN both 2.0 µM, competitor 2-20 µM, read-out: IC50
  IC50: > 20 µM
SfurOBP2; SfurOBP2, protein and 1-NPN both 2.0 µM, competitor 2-20 µM, read-out: IC50
  IC50: > 20 µM
SfurOBP2; ligand concentration 2 (unit not given), replicate column 1 of 3
  Fluorescence competitive binding assay, OBP2 (raw fluorescence reading): 15175
SfurOBP2; ligand concentration 2 (unit not given), replicate column 2 of 3
  Fluorescence competitive binding assay, OBP2 (raw fluorescence reading): 15154
SfurOBP2; ligand concentration 2 (unit not given), replicate column 3 of 3
  Fluorescence competitive binding assay, OBP2 (raw fluorescence reading): 16258
SfurOBP2; ligand concentration 4 (unit not given), replicate column 1 of 3
  Fluorescence competitive binding assay, OBP2 (raw fluorescence reading): 15758
SfurOBP2; ligand concentration 4 (unit not given), replicate column 2 of 3
  Fluorescence competitive binding assay, OBP2 (raw fluorescence reading): 17105
SfurOBP2; ligand concentration 4 (unit not given), replicate column 3 of 3
  Fluorescence competitive binding assay, OBP2 (raw fluorescence reading): 16490
SfurOBP2; ligand concentration 6 (unit not given), replicate column 1 of 3
  Fluorescence competitive binding assay, OBP2 (raw fluorescence reading): 15945
SfurOBP2; ligand concentration 6 (unit not given), replicate column 2 of 3
  Fluorescence competitive binding assay, OBP2 (raw fluorescence reading): 16570
SfurOBP2; ligand concentration 6 (unit not given), replicate column 3 of 3
  Fluorescence competitive binding assay, OBP2 (raw fluorescence reading): 19054
SfurOBP2; ligand concentration 8 (unit not given), replicate column 1 of 3
  Fluorescence competitive binding assay, OBP2 (raw fluorescence reading): 15963
SfurOBP2; ligand concentration 8 (unit not given), replicate column 2 of 3
  Fluorescence competitive binding assay, OBP2 (raw fluorescence reading): 18724
SfurOBP2; ligand concentration 8 (unit not given), replicate column 3 of 3
  Fluorescence competitive binding assay, OBP2 (raw fluorescence reading): 18059
SfurOBP2; ligand concentration 10 (unit not given), replicate column 1 of 3
  Fluorescence competitive binding assay, OBP2 (raw fluorescence reading): 16134
SfurOBP2; ligand concentration 10 (unit not given), replicate column 2 of 3
  Fluorescence competitive binding assay, OBP2 (raw fluorescence reading): 18215
SfurOBP2; ligand concentration 10 (unit not given), replicate column 3 of 3
  Fluorescence competitive binding assay, OBP2 (raw fluorescence reading): 19226
SfurOBP2; ligand concentration 12 (unit not given), replicate column 1 of 3
  Fluorescence competitive binding assay, OBP2 (raw fluorescence reading): 15563
SfurOBP2; ligand concentration 12 (unit not given), replicate column 2 of 3
  Fluorescence competitive binding assay, OBP2 (raw fluorescence reading): 19243
SfurOBP2; ligand concentration 12 (unit not given), replicate column 3 of 3
  Fluorescence competitive binding assay, OBP2 (raw fluorescence reading): 19003
SfurOBP2; ligand concentration 14 (unit not given), replicate column 1 of 3
  Fluorescence competitive binding assay, OBP2 (raw fluorescence reading): 19071
SfurOBP2; ligand concentration 14 (unit not given), replicate column 2 of 3
  Fluorescence competitive binding assay, OBP2 (raw fluorescence reading): 18512
SfurOBP2; ligand concentration 14 (unit not given), replicate column 3 of 3
  Fluorescence competitive binding assay, OBP2 (raw fluorescence reading): 18689
SfurOBP2; ligand concentration 16 (unit not given), replicate column 1 of 3
  Fluorescence competitive binding assay, OBP2 (raw fluorescence reading): 17244
SfurOBP2; ligand concentration 16 (unit not given), replicate column 2 of 3
  Fluorescence competitive binding assay, OBP2 (raw fluorescence reading): 19263
SfurOBP2; ligand concentration 16 (unit not given), replicate column 3 of 3
  Fluorescence competitive binding assay, OBP2 (raw fluorescence reading): 18663
SfurOBP2; ligand concentration 18 (unit not given), replicate column 1 of 3
  Fluorescence competitive binding assay, OBP2 (raw fluorescence reading): 23408
SfurOBP2; ligand concentration 18 (unit not given), replicate column 2 of 3
  Fluorescence competitive binding assay, OBP2 (raw fluorescence reading): 23725
SfurOBP2; ligand concentration 18 (unit not given), replicate column 3 of 3
  Fluorescence competitive binding assay, OBP2 (raw fluorescence reading): 20804
SfurOBP2; ligand concentration 20 (unit not given), replicate column 1 of 3
  Fluorescence competitive binding assay, OBP2 (raw fluorescence reading): 16894
SfurOBP2; ligand concentration 20 (unit not given), replicate column 2 of 3
  Fluorescence competitive binding assay, OBP2 (raw fluorescence reading): 20680
SfurOBP2; ligand concentration 20 (unit not given), replicate column 3 of 3
  Fluorescence competitive binding assay, OBP2 (raw fluorescence reading): 19308
SfurOBP11; SfurOBP11, protein and 1-NPN both 2.0 µM, competitor 2-20 µM, read-out: IC50
  IC50: > 20 µM
SfurOBP11; ligand concentration 4, replicate 1
  Fluorescence intensity, fluorescence competitive binding assay, OBP11: 32002
SfurOBP11; ligand concentration 6, replicate 1
  Fluorescence intensity, fluorescence competitive binding assay, OBP11: 31916
SfurOBP11; ligand concentration 8, replicate 1
  Fluorescence intensity, fluorescence competitive binding assay, OBP11: 31638
SfurOBP11; ligand concentration 8, replicate 2
  Fluorescence intensity, fluorescence competitive binding assay, OBP11: 32522
SfurOBP11; ligand concentration 8, replicate 3
  Fluorescence intensity, fluorescence competitive binding assay, OBP11: 31984
SfurOBP11; ligand concentration 10, replicate 1
  Fluorescence intensity, fluorescence competitive binding assay, OBP11: 34517
SfurOBP11; ligand concentration 10, replicate 2
  Fluorescence intensity, fluorescence competitive binding assay, OBP11: 33120
SfurOBP11; ligand concentration 10, replicate 3
  Fluorescence intensity, fluorescence competitive binding assay, OBP11: 33819
SfurOBP11; ligand concentration 12, replicate 3
  Fluorescence intensity, fluorescence competitive binding assay, OBP11: 31678
SfurOBP11; ligand concentration 14, replicate 1
  Fluorescence intensity, fluorescence competitive binding assay, OBP11: 31889
SfurOBP11; ligand concentration 14, replicate 2
  Fluorescence intensity, fluorescence competitive binding assay, OBP11: 31807
SfurOBP11; ligand concentration 14, replicate 3
  Fluorescence intensity, fluorescence competitive binding assay, OBP11: 32302
SfurOBP11; ligand concentration 18, replicate 1
  Fluorescence intensity, fluorescence competitive binding assay, OBP11: 36648
SfurOBP11; ligand concentration 18, replicate 2
  Fluorescence intensity, fluorescence competitive binding assay, OBP11: 40474
SfurOBP11; ligand concentration 18, replicate 3
  Fluorescence intensity, fluorescence competitive binding assay, OBP11: 36079
SfurOBP11; ligand concentration 20, replicate 1
  Fluorescence intensity, fluorescence competitive binding assay, OBP11: 36041
SfurOBP11; ligand concentration 20, replicate 2
  Fluorescence intensity, fluorescence competitive binding assay, OBP11: 35048
SfurOBP11; ligand concentration 20, replicate 3
  Fluorescence intensity, fluorescence competitive binding assay, OBP11: 35313
S. furcifera adults
  behavioral response of S. furcifera (in words): strongly attracted
S. furcifera adults; adults
  number of insects choosing hexane arm: 10
  number of insects choosing volatilies arm: 25
  number of insects failed (no choice): 5
